Data published in patent US20080234262A1 (Wyeth, priority 2007, published 2008).
Where two headings read alike, the source gives them in different places.

Columns and labels:
[1] = tested on: prostate line LNCap; experiment: In vitro cell culture growth assay (MTS), LNCap; assay type: cell-based, human; conditions: LNCap cells, three days after drug treatment
[2] = target: PI3K (Homo sapiens, UniProt P42336); experiment: Fluorescence polarization assay for PI3K; assay type: biochemical;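 note: PI3K kinase reaction on PIP2 with ATP, 30-60 min, product sensed by GST-GRP with red probe in fluorescence polarization (mP), controls without enzyme and at zero time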
Sequence of PI3K (P42336 whole entry): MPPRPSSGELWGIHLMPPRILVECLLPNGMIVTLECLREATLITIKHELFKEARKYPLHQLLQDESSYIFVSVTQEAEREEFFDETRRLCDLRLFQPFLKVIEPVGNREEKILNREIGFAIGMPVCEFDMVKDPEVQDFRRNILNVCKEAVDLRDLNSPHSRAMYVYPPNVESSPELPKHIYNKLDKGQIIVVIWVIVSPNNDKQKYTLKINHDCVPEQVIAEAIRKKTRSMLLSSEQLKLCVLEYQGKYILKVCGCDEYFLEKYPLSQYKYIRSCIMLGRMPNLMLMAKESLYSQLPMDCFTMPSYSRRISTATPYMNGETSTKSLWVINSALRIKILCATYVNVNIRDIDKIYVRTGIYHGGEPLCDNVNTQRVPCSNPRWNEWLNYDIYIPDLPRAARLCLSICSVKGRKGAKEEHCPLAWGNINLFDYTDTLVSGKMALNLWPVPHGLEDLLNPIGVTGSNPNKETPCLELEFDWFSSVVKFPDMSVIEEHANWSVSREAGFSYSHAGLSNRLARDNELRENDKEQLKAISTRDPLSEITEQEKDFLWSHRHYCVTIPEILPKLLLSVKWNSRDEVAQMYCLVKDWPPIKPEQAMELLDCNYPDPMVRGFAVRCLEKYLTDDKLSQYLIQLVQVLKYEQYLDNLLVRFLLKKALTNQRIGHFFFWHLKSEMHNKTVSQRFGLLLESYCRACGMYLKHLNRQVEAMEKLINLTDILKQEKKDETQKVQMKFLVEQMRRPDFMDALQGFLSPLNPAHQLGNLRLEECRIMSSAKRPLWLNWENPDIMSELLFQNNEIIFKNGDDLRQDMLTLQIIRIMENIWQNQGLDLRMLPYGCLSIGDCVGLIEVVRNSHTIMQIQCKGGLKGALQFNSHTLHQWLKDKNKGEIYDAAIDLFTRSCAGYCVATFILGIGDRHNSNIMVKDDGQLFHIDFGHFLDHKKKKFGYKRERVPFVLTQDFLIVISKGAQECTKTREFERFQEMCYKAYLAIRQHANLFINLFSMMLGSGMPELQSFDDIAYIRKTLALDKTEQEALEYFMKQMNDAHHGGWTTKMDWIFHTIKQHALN
Sequence of PI3K (P27986 whole entry partner): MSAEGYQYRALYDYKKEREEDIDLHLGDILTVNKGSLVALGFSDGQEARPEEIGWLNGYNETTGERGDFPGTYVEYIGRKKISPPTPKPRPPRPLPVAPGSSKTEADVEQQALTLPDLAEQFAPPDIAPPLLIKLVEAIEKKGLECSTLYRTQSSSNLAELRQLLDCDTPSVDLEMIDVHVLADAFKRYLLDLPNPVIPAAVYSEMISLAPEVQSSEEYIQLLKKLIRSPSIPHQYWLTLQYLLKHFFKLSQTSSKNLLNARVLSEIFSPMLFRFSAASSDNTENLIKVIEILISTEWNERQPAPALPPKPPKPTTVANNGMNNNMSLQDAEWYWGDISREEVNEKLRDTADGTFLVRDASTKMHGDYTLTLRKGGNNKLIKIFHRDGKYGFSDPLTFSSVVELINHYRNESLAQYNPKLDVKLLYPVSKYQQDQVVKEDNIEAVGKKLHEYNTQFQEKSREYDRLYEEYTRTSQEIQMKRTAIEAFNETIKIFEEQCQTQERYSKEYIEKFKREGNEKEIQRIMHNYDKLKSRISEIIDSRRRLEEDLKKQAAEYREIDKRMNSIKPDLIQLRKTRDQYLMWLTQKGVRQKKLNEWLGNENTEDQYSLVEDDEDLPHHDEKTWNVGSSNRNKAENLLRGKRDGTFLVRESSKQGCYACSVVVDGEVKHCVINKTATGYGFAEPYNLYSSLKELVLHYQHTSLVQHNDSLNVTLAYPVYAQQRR

[3] = tested on: breast line MDA468; experiment: In vitro cell culture growth assay (MTS), MDA468; assay type: cell-based, human; conditions: MDA468 cells, three days after drug treatment
Method in brief: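 MDA468 or LNCap cells received inhibitors one day after plating and were grown for three days. Viable cell density read by MTS conversion, absorbance 490 nm, expressed as percent of control growth versus vehicle-treated cells on the same plate.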

Compound | IC50 ([1]; Homo sapiens, LNCaP, 72 h) [µM] | IC50 ([2]; PI3Kα, read-out: PI3Kα IC50) [µM] | IC50 [1] [µM] | IC50 ([3]; Homo sapiens, 72 h) [µM] | IC50 ([1]; Homo sapiens, 72 h) [µM] | IC50 ([2]; PI3Kα IC50, PI3Kα) [µM] | IC50 [3] [µM]
CCCOC(=O)N1CCC(n2ncc3c(N4CCOCC4)nc(-c4ccc(NC(=O)OC)cc4)nc32)CC1 [Compound 857, propyl 4-(6-{4-[(methoxycarbonyl)amino]phenyl}-4-morpholin-4-yl-1H-pyrazolo[3,4-d]pyrimidin-1-yl)piperidine-1-carboxylate] | 1.6 | 2.77 | – | 5 | – | – | –
CCOC(=O)N1CCC(n2ncc3c(N4CCOCC4)nc(-c4ccc(NC(=O)Nc5ccccn5)cc4)nc32)CC1 [Compound 815, ethyl 4-(4-morpholin-4-yl-6-{4-[(pyridin-2-ylcarbamoyl)amino]phenyl}-1H-pyrazolo[3,4-d]pyrimidin-1-yl)piperidine-1-carboxylate] | 1.5 | 3.81 | – | 5 | – | – | –
O=C(Nc1ccc(-c2nc(N3CCOCC3)c3cnn(C4CCN(Cc5ccccc5)CC4)c3n2)cc1)NN1CCCC1 [Compound 537, 1-{4-[1-(1-benzylpiperidin-4-yl)-4-morpholin-4-yl-1H-pyrazolo[3,4-d]pyrimidin-6-yl]phenyl}-3-pyrrolidin-1-ylurea] | 3 | 4.23 | – | 10 | – | – | –
CCNC(=O)Nc1ccc(-c2nc(N3CCOC[C@@H]3C)c3cnn(C4CCN(C(=O)OCC)CC4)c3n2)cc1 [Compound 894, ethyl 4-(6-{4-[(ethylcarbamoyl)amino]phenyl}-4-[(3S)-3-methylmorpholin-4-yl]-1H-pyrazolo[3,4-d]pyrimidin-1-yl)piperidine-1-carboxylate] | 0.1 | 0.553 | – | 0.96 | – | – | –
Clc1ccc(-c2nc(N3CCOCC3)c3cnn(C4CCN(Cc5ccccc5)CC4)c3n2)cn1 [Compound 156] | 3.3 | 0.45 | – | 35 | – | – | –
c1ccc(N2CCC(n3ncc4c(N5CCOCC5)nc(-c5ccc6[nH]ccc6c5)nc43)CC2)nc1 [Compound 217, 6-(1H-indol-5-yl)-4-morpholin-4-yl-1-(1-pyridin-2-ylpiperidin-4-yl)-1H-pyrazolo[3,4-d]pyrimidine] | 1.2 | 1.4 | – | 1.9 | – | – | –
Nc1ccc(-c2nc(N3CCOCC3)c3cnn(C4CCN(Cc5ccccc5)CC4)c3n2)cc1[N+](=O)[O-] [Compound 183, 4-[1-(1-benzylpiperidin-4-yl)-4-morpholin-4-yl-1H-pyrazolo[3,4-d]pyrimidin-6-yl]-2-nitroaniline] | 11 | 1.17 | – | 13 | – | – | –
O=C(Nc1ccc(-c2nc(N3CCOCC3)c3cnn(C4CCN(CC(F)(F)F)CC4)c3n2)cc1)Nc1ccccn1 [Compound 785, 1-(4-{4-morpholin-4-yl-1-[1-(2,2,2-trifluoroethyl)piperidin-4-yl]-1H-pyrazolo[3,4-d]pyrimidin-6-yl}phenyl)-3-pyridin-2-ylurea] | 3.8 | 0.89 | – | 12 | – | – | –
O=C(Nc1ccc(-c2nc(N3CCOCC3)c3cnn(C4CCN(Cc5cccnc5)CC4)c3n2)cc1)NC1CC1 [Example 405, 1-cyclopropyl-3-(4-{4-morpholin-4-yl-1-[1-(pyridin-3-ylmethyl)piperidin-4-yl]-1H-pyrazolo[3,4-d]pyrimidin-6-yl}phenyl)urea] | 0.027 | 0.438 | – | 0.1 | – | – | –
CCOC(=O)Nc1ccc(-c2nc(N3CCOCC3)c3cnn(C4CCN(C(=O)c5ccccc5)CC4)c3n2)cc1 [Example 383, Ethyl {4-[1-(1-benzoylpiperidin-4-yl)-4-morpholin-4-yl-1H-pyrazolo[3,4-d]pyrimidin-6-yl]phenyl}carbamate] | 0.9 | 1.58 | – | 4.3 | – | – | –
COC(=O)Nc1ccc(-c2nc(N3CCOCC3)c3cnn(C4CCN(C(=O)c5ccccn5)CC4)c3n2)cc1 [Example 441, methyl (4-{4-morpholin-4-yl-1-[1-(pyridin-2-ylcarbonyl)piperidin-4-yl]-1H-pyrazolo[3,4-d]pyrimidin-6-yl}phenyl)carbamate] | 0.2 | 1.92 | – | 0.6 | – | – | –
COC(=O)N1CCC(n2ncc3c(N4CCOCC4)nc(-c4ccc(NC(=O)Oc5ccc(F)cc5)cc4)nc32)CC1 [Compound 948, methyl 4-[6-(4-{[(4-fluorophenoxy)carbonyl]amino}phenyl)-4-morpholin-4-yl-1H-pyrazolo[3,4-d]pyrimidin-1-yl]piperidine-1-carboxylate] | – | – | – | 0.7 | 0.22 | 8.83 | –
Nc1ccc(-c2nc(N3CCOCC3)c3cnn(C4CCN(C(=O)c5cccnc5)CC4)c3n2)nc1 [Compound 435, 6-{4-morpholin-4-yl-1-[1-(pyridin-3-ylcarbonyl)piperidin-4-yl]-1H-pyrazolo[3,4-d]pyrimidin-6-yl}pyridin-3-amine] | 45 | 4.04 | – | 60 | – | – | –

The remaining molecules from weak to strong by IC50 ([2]; PI3Kα, read-out: PI3Kα IC50), led by results:

IC50 ([1]; Homo sapiens, LNCaP, 72 h) [µM] | IC50 ([2]; PI3Kα, read-out: PI3Kα IC50) [µM] | IC50 [1] [µM] | Compound | IC50 ([3]; Homo sapiens, 72 h) [µM] | IC50 ([1]; Homo sapiens, 72 h) [µM] | IC50 ([2]; PI3Kα IC50, PI3Kα) [µM] | IC50 [3] [µM]
2 | 0.389 | – | COC(=O)Nc1ccc(-c2nc(N3CCOCC3)c3cnn(C4CCN(Cc5ccc(Cl)cc5)CC4)c3n2)cc1 [Compound 451, methyl (4-{1-[1-(4-chlorobenzyl)piperidin-4-yl]-4-morpholin-4-yl-1H-pyrazolo[3,4-d]pyrimidin-6-yl}phenyl)carbamate] | 9 | – | – | –
5.2 | 0.357 | – | CC(=O)Nc1cccc(-c2nc(N3CCOCC3)c3cnn(-c4ccccc4)c3n2)c1 [Compound 115] | 9 | – | – | –
0.15 | 0.268 | – | CNC(=O)Nc1ccc(-c2nc(N3CCOC(C)C3)c3cnn(C4CCN(C(=O)OC)CC4)c3n2)cc1 (stereo not drawn) [Compound 841, methyl 4-[6-{4-[(methylcarbamoyl)amino]phenyl}-4-(2-methylmorpholin-4-yl)-1H-pyrazolo[3,4-d]pyrimidin-1-yl]piperidine-1-carboxylate] | 0.5 | – | – | –
0.32 | 0.198 | – | CNC(=O)Nc1ccc(-c2nc(N3CCOCC3)c3cnn(C4CCN(C(=O)c5cnccn5)CC4)c3n2)cc1 [Example 422, 1-methyl-3-(4-{4-morpholin-4-yl-1-[1-(pyrazin-2-ylcarbonyl)piperidin-4-yl]-1H-pyrazolo[3,4-d]pyrimidin-6-yl}phenyl)urea] | 0.4 | – | – | –
0.225 | 0.194 | – | CNC(=O)Nc1ccc(-c2nc(N3CCOCC3)c3cnn(CC(F)(F)F)c3n2)cc1 [Compound 729, 1-methyl-3-{4-[4-morpholin-4-yl-1-(2,2,2-trifluoroethyl)-1H-pyrazolo[3,4-d]pyrimidin-6-yl]phenyl}urea] | 0.6 | – | – | –
< 0.027 | 0.187 | – | CCNC(=O)Nc1ccc(-c2nc(N3CCOCC3)c3cnn(C4CCN(Cc5cccnc5)CC4)c3n2)cc1 [Compound 563, 1-ethyl-3-(4-{4-morpholin-4-yl-1-[1-(pyridin-3-ylmethyl)piperidin-4-yl]-1H-pyrazolo[3,4-d]pyrimidin-6-yl}phenyl)urea] | 0.027 | – | – | –
– | 0.108 | 0.035 | CNC(=O)Nc1ccc(-c2nc(N3CCOCC3)c3cnn(C4CCN(Cc5ccc(F)nc5)CC4)c3n2)cc1 [Compound 632, 1-[4-(1-{1-[(6-fluoropyridin-3-yl)methyl]piperidin-4-yl}-4-morpholin-4-yl-1H-pyrazolo[3,4-d]pyrimidin-6-yl)phenyl]-3-methylurea] | – | – | – | 0.12
< 0.027 | 0.072 | – | CNC(=O)Nc1ccc(-c2nc(N3CCOCC3)c3cnn(C4CCN(C(=O)c5cccc(C)c5)CC4)c3n2)cc1 [Compound 612, 1-methyl-3-(4-{1-[1-(3-methylbenzoyl)piperidin-4-yl]-4-morpholin-4-yl-1H-pyrazolo[3,4-d]pyrimidin-6-yl}phenyl)urea] | 0.027 | – | – | –
0.6 | 0.066 | – | CNC(=O)Nc1ccc(-c2nc(N3CCOCC3)c3cnn(C4CCN(CC(N)=O)CC4)c3n2)cc1 [Compound 576, 2-[4-(6-{4-[(methylcarbamoyl)amino]phenyl}-4-morpholin-4-yl-1H-pyrazolo[3,4-d]pyrimidin-1-yl)piperidin-1-yl]acetamide] | 1 | – | – | –
0.027 | 0.065 | – | CNC(=O)Nc1ccc(-c2nc(N3CCOCC3)c3cnn(C4CCN(Cc5ccccn5)CC4)c3n2)cc1 [Example 331, 1-methyl-3-(4-{4-morpholin-4-yl-1-[1-(pyridin-2-ylmethyl)piperidin-4-yl]-1H-pyrazolo[3,4-d]pyrimidin-6-yl}phenyl)urea] | 0.5 | – | – | –
0.074 | 0.055 | – | Oc1cccc(-c2nc(N3CCOCC3)c3cnn(C4CCN(Cc5ccco5)CC4)c3n2)c1 [Compound 15] | 0.6 | – | – | –
0.027 | 0.031 | – | CNC(=O)Nc1ccc(-c2nc(N3CCOCC3)c3cnn(C4CCN(Cc5ccc(Br)nc5)CC4)c3n2)cc1 [Example 389, 1-[4-(1-{1-[(6-bromopyridin-3-yl)methyl]piperidin-4-yl}-4-morpholin-4-yl-1H-pyrazolo[3,4-d]pyrimidin-6-yl)phenyl]-3-methylurea] | 0.1 | – | – | –
0.14 | 0.028 | – | CNC(=O)Nc1ccc(-c2nc(N3CCOCC3)c3cnn(C4CCN(Cc5cccc(O)c5)CC4)c3n2)cc1 [Example 397, 1-(4-{1-[1-(3-hydroxybenzyl)piperidin-4-yl]-4-morpholin-4-yl-1H-pyrazolo[3,4-d]pyrimidin-6-yl}phenyl)-3-methylurea] | 0.4 | – | – | –
0.027 | 0.025 | – | CNC(=O)Nc1ccc(-c2nc(N3CCOCC3)c3cnn(C4CCN(Cc5ccc(C)cc5)CC4)c3n2)cc1 [Example 431, 1-methyl-3-(4-{1-[1-(4-methylbenzyl)piperidin-4-yl]-4-morpholin-4-yl-1H-pyrazolo[3,4-d]pyrimidin-6-yl}phenyl)urea] | 0.1 | – | – | –
0.22 | 0.022 | – | Cc1ccc(CN2CCC(n3ncc4c(N5CCOCC5)nc(-c5cccc(O)c5)nc43)CC2)s1 [Example 18] | 1.3 | – | – | –
